Results from US8846904B2, “Water-soluble porphyrin and process for production thereof” (University of Miyazaki, priority 2009, dated 2014).
Where two headings read alike, the source gives them in different places.

Tests used:
[1] = Solubility in water (Cw), saturated aqueous solution, absorption spectrum; format: physicochemical
Description: (§1) 10 mg of the obtained PTPP derivative was dispersed in 0.50 mL of water and allowed to stand for 3 days to prepare a saturated aqueous solution. The supernatant of the aqueous solution was collected and diluted with methanol. Thereafter, the absorption spectrum was measured and the solubility in water (Cw) was calculated using the molar absorption coefficient of the PTPP derivative in methanol. In a similar manner to the above, the solubility in dioxane (Co) was also calculated.

[2] = Solubility in dioxane (Co), absorption spectrum; format: physicochemical
Description: as §1

[3] = Partition from aqueous phase to water-immiscible organic solvent (octanol or chloroform); format: physicochemical; conditions: octanol or chloroform added to the aqueous solution and stirred; derivative promptly moved to the organic phase
Description: A water-immiscible organic solvent, such as octanol or chloroform, was added to the aqueous solution of the PTPP derivative (Cw=17.3 mM, Co=0.245 mM) and stirred. This caused the PTPP derivative dissolved in the aqueous phase to promptly move to the organic phase.

[4] = system: yeast (Saccharomyces cerevisiae); experiment: Biocompatibility: concentration of PTPP derivative adsorbed on yeast cells (Cad), microscope absorption spectrophotometry; format: cell-based; conditions: 10 μM of PTPP derivative added to a yeast solution (1.0×10^4 cell/mL); Nd = below the detection limit
Description: Subsequently, the biocompatibility of this PTPP derivative was assessed in the following manner. An aqueous solution of this PTPP derivative (0.5 mL, 50 μm) was added to the cell suspension (1.0 mL; ca. 2.5×10^4 cell/mL) of yeast, and then an aqueous solution of agar (1 wt %; 1.0 mL) was added. A portion of the prepared aqueous solution containing the PTPP derivative (10 μm), yeast (Saccharomyces cerevisiae; ca. 1.0×10^4 cell/mL) and agar (0.4 wt %) was placed on a space (1 cm×1 cm) surrounded by a silicone spacer (thickness 50 μm) put on a glass slide, covered with a cover glass. The glass slide was set on the stage of an optical microscope. Thereafter, appropriate bacterial cells were positioned in the center of the field of view, and the Q-band absorption spectrum of the PTPP derivative near 560 nm was measured. Then, the concentration (Cad) of the PTPP derivative adsorbed on the bacterial cells was calculated from absorption spectrophotometry based on the Lambert-Beer law.

[5] = Quantum yield of 1O2 production, near infrared emission at 1,270 nm; format: physicochemical; conditions: aqueous PTPP derivative solution (20 μM), laser 558 nm, relative to methylene blue
Excerpt: When the photosensitizer “Photofrin” that has been practically used in PDT treatment is used, the quantum yield of ^1O2 is 0.53 (J. Photochem. Photobiol. B, 92 (2008), 59-65). In contrast, when the PTPP derivatives prepared in Examples 2, 3, and 4 were used, the quantum yields of ^1O2 were 0.62, 0.69, and 0.73, respectively. This explains that the water-soluble porphyrins of the present invention have high photoexcitation efficiency and can thus be suitably used for PDT. The quantum yields of the ^1O2 production were determined by directly measuring the near infrared emission near 1,270 nm obtained by deactivation of the produced ^1O2.
Specifically, an aqueous PTPP derivative solution (20 μM) was irradiated with a laser beam of 558 nm to excite the PTPP derivative, and the emission spectrum of the produced ^1O2 was measured. The quantum yield of the ^1O2 production was calculated by comparing the emission intensity at 1,270 nm obtained with respect to the aqueous PTPP derivative solution with the emission intensity at 1,270 nm obtained in the same manner as above with respect to methylene blue (quantum yield: 0.52).

[6] = cited from earlier work
[7] = saturated aqueous solution, allowed to stand for 3 days

| Compound | Solubility Cw (solubility in water) [1, 7] [µM] | Solubility Co (solubility in dioxane) ([2]; solvent dioxane) | Cad (concentration of PTPP derivative adsorbed on bacterial cell) [4] [mM] | quantum yield of 1O2 [5] | other results |
| --- | --- | --- | --- | --- | --- |
| COCCOCCOCCO[P-]123(OCCOCCOCCOC)n4c5ccc4C(c4ccccc4)=C4C=CC(=[N+]41)C(c1ccccc1)=c1ccc(n12)=C(c1ccccc1)C1=[N+]3C(=C5c2ccccc2)C=C1.Cl [Example 1] | 17300 | 245 µM | – | – | partition to the organic phase [3]: high partition coefficient to the organic phase |
| COCCOCCO[P-]123(OCCOCCOC)n4c5ccc4C(c4ccccc4)=C4C=CC(=[N+]41)C(c1ccccc1)=c1ccc(n12)=C(c1ccccc1)C1=[N+]3C(=C5c2ccccc2)C=C1.Cl [Example 2] | 13900 | 140 µM | 17.8 | 0.62 | – |
| CCOCCOCCO[P-]123(OCCOCCOCC)n4c5ccc4C(c4ccccc4)=C4C=CC(=[N+]41)C(c1ccccc1)=c1ccc(n12)=C(c1ccccc1)C1=[N+]3C(=C5c2ccccc2)C=C1.Cl [Example 3] | 13000 | 169 µM | 27.5 | 0.69 | – |
| CCCCOCCOCCO[P-]123(OCCOCCOCCCC)n4c5ccc4C(c4ccccc4)=C4C=CC(=[N+]41)C(c1ccccc1)=c1ccc(n12)=C(c1ccccc1)C1=[N+]3C(=C5c2ccccc2)C=C1.Cl [Example 4] | 5380 | 293 µM | 74.6 | 0.73 | – |
| CCCCCCOCCOCCO[P-]123(OCCOCCOCCCCCC)n4c5ccc4C(c4ccccc4)=C4C=CC(=[N+]41)C(c1ccccc1)=c1ccc(n12)=C(c1ccccc1)C1=[N+]3C(=C5c2ccccc2)C=C1.Cl [Example 5] | 2070 | 244 µM | 146 | – | – |
| CCCCCCOCCO[P-]123(OCCOCCCCCC)n4c5ccc4C(c4ccccc4)=C4C=CC(=[N+]41)C(c1ccccc1)=c1ccc(n12)=C(c1ccccc1)C1=[N+]3C(=C5c2ccccc2)C=C1.Cl [Example 6] | – | – | 142 | – | Solubility Cw (solubility in water) [1]: 1110 µM; Solubility Co (solubility in dioxane) [2]: 242 µM |
| CCCCCCCCCCCCOCCOCCOCCOCCOCCOCCOCCOCCOCCO[P-]123(OCCOCCOCCOCCOCCOCCOCCOCCOCCOCCCCCCCCCCCC)n4c5ccc4C(c4ccccc4)=C4C=CC(=[N+]41)C(c1ccccc1)=c1ccc(n12)=C(c1ccccc1)C1=[N+]3C(=C5c2ccccc2)C=C1.Cl [Example 7] | 14460 | ≧25 mM | – | – | – |
| CCCCCCCCCCCCCCCCCCOCCOCCOCCOCCO[P-]123(OCCOCCOCCOCCOCCCCCCCCCCCCCCCCCC)n4c5ccc4C(c4ccccc4)=C4C=CC(=[N+]41)C(c1ccccc1)=c1ccc(n12)=C(c1ccccc1)C1=[N+]3C(=C5c2ccccc2)C=C1.Cl [Example 8] | 7960 | ≧25 mM | – | – | – |
| CN(C)c1ccc2nc3ccc(=[N+](C)C)cc-3sc2c1 [methylene blue] | – | – | – | – | quantum yield of 1O2 ([6]; methylene blue reference standard value): 0.52 |
| Photofrin | – | – | – | – | quantum yield of 1O2 ([6]; Photofrin, from J. Photochem. Photobiol. B, 92 (2008), 59-65): 0.53 |
